Results on 22 molecules are retold here after patent US20250051335A1, “TAU-TUBULIN KINASE (TTBK) INHIBITOR COMPOUNDS” (CONSEJO SUPERIOR DE INVESTIGACIONES CIENTÍFICAS (CSIC), priority 2021, published 2025).

SMILES strings stand for the structures.

A short description of data set [1]: Permeability of the blood-brain barrier by PAMPA (porcine brain lipid). The note with it: for Prediction of crossing the BBB: based on Ep correlated with 10 control drugs; for Papp at 2.5 h: pig, pH 7.4.
In data set [2] the target is recombinant human enzyme TTBK1 (1-1321) (Homo sapiens (Human), UniProt Q5TCY1). Nature of the data set: Enzymatic inhibition of TTBK1 (33P-ATP radiometric kinase assay). The format is biochemical. The following applies: recombinant human TTBK1 (1-1321), 0.005 mM ATP, 30 minutes at room temperature. As for the experimental part:
(§1) The final reaction mixture contains the peptide at a concentration of 0.3 mM, 10 mM magnesium acetate and 0.005 mM [33P-γ-ATP](50-1000 cpm/pmol). The reaction mixture is incubated for 30 minutes at room temperature and the reaction is stopped after the addition of 5 μl of orthophosphoric acid.

Data set [3] deals with recombinant human enzyme TTBK2(1-450) (Homo sapiens (Human), UniProt Q6IQ55). Description: Enzymatic inhibition of TTBK2 (33P-ATP radiometric kinase assay). The format is biochemical. The note with it: recombinant human TTBK2(1-450), 0.005 mM ATP, 30 minutes at room temperature. As for the experimental part:
as §1

recombinant human enzyme TTBK2(1-450), sequence (Q6IQ55 1-450): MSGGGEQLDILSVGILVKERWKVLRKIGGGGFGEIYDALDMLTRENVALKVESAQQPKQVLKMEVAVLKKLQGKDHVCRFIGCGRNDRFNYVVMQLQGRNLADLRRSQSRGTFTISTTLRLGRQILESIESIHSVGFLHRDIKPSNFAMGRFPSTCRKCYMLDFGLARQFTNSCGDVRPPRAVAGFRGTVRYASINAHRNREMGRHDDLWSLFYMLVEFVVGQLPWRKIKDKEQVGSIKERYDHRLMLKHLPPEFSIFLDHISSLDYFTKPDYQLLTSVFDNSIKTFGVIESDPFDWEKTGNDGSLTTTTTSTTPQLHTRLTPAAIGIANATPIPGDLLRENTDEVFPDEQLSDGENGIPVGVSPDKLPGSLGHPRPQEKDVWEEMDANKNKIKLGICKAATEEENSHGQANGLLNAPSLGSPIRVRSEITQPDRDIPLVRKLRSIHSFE
recombinant human enzyme TTBK1 (1-1321), sequence (Q5TCY1 whole entry): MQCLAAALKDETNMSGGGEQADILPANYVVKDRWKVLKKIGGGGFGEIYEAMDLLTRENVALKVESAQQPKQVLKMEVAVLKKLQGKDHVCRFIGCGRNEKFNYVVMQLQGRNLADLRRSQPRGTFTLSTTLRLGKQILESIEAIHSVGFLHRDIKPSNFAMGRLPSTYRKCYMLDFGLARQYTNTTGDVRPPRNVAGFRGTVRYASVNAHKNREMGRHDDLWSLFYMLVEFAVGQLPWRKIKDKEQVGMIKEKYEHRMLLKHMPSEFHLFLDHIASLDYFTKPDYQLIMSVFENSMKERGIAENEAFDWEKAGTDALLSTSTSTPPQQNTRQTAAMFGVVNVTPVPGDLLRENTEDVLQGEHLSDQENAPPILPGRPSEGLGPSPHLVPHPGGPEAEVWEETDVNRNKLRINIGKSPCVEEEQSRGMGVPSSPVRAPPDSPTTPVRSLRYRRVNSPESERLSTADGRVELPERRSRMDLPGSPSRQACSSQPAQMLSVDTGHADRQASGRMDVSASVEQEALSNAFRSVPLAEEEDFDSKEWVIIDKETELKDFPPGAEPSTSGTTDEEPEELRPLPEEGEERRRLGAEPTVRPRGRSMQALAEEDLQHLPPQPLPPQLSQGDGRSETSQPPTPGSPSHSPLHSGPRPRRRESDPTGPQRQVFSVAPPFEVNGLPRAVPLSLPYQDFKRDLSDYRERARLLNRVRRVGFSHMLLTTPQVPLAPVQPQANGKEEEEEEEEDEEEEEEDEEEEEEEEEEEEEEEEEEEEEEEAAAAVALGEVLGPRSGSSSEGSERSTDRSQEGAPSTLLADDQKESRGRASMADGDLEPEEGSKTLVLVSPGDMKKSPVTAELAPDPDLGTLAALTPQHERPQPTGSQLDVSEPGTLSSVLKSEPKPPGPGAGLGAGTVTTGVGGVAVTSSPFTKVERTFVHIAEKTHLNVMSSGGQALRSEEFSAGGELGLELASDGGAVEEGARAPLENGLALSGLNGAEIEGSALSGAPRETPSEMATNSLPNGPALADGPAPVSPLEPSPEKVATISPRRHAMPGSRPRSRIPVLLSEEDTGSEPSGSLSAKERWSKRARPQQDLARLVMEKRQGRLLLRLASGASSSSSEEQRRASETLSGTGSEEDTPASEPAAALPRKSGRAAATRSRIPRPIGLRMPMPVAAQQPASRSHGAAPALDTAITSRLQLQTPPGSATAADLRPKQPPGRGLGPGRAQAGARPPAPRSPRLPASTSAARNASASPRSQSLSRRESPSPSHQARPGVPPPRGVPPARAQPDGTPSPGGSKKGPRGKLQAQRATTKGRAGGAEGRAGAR

The term Papp denotes the rate of passage across a membrane or cell layer, normalised by area and donor concentration. A high value points to fast passage. As to `c1ccc(Oc2ccc(Nc3ncnc4[nH]ccc34)cc2)cc1` [Compound 1, N-(4-phenoxyphenyl)-7H-pyrrolo[2,3-d]pyrimidin-4-amine], in data set [1], the “Prediction of crossing the BBB” value was “CNS+” and the Papp at 2.5 h is 23.2 ± 1.4 ×10⁻⁶ cm/s.
As to `Clc1ccc(Oc2ccc(Nc3ncnc4[nH]ccc34)cc2)cc1` [Compound 2, N-[4-(4-chlorophenoxy)phenyl]-7H-pyrrolo[2,3-d]pyrimidin-4-amine], in data set [1], the “Prediction of crossing the BBB” value is “CNS+” and the Papp at 2.5 h stood at 11.5 ± 1 ×10⁻⁶ cm/s.
One may read the IC50 as the concentration that gives 50% inhibition. As for `Fc1ccc(Oc2ccc(Nc3ncnc4[nH]ccc34)cc2)cc1` [Compound 3, N-[4-(4-fluorophenoxy)phenyl]-7H-pyrrolo[2,3-d]pyrimidin-4-amine], in data set [2], the IC50 is 0.77 ± 0.14 µM. Further, in data set [1], the “Prediction of crossing the BBB” value is listed as “CNS+” and the Papp at 2.5 h came to 15.6 ± 1.3 ×10⁻⁶ cm/s. For the same molecule, in data set [3], the IC50 was found to be 3.02 ± 0.82 µM.
Take `COc1ccc(Oc2ccc(Nc3ncnc4[nH]ccc34)cc2)cc1` [Compound 5, N-[4-(4-methoxyphenoxy)phenyl]-7H-pyrrolo[2,3-d]pyrimidin-4-amine]: in data set [1], the “Prediction of crossing the BBB” value is given as “CNS+” and the Papp at 2.5 h worked out at 11.8 ± 0.3 ×10⁻⁶ cm/s.
For `FC(F)(F)c1ccc(Oc2ccc(Nc3ncnc4[nH]ccc34)cc2)cc1` [Compound 6, N-[4-(4-trifluoromethylphenoxy)phenyl]-7H-pyrrolo[2,3-d]pyrimidin-4-amine] the same measures were “CNS+” and 7.6 ± 1.4 ×10⁻⁶ cm/s.
Consider `Brc1ccc(Oc2ccc(Nc3ncnc4[nH]ccc34)cc2)cc1` [Compound 7, N-[4-(4-bromophenoxy)phenyl]-7H-pyrrolo[2,3-d]pyrimidin-4-amine], for which, in data set [1], the “Prediction of crossing the BBB” value is listed as “CNS+” and the Papp at 2.5 h is 11 ± 1.2 ×10⁻⁶ cm/s.
As for `O=[N+]([O-])c1ccc(Oc2ccc(Nc3ncnc4[nH]ccc34)cc2)cc1` [Compound 8, N-[4-(4-nitrophenoxy)phenyl]-7H-pyrrolo[2,3-d]pyrimidin-4-amine], in data set [1], the “Prediction of crossing the BBB” value is recorded as “CNS+” and the Papp at 2.5 h worked out at 14.3 ± 1.1 ×10⁻⁶ cm/s.
In the case of `Cc1ccc(Oc2ccc(Nc3ncnc4[nH]ccc34)cc2)cc1` [Compound 10, N-[4-(4-methylphenoxy)phenyl]-7H-pyrrolo[2,3-d]pyrimidin-4-amine], in data set [1], the “Prediction of crossing the BBB” value was “CNS+” and the Papp at 2.5 h was 18.7 ± 1.4 ×10⁻⁶ cm/s.
Consider `Cc1cccc(Oc2ccc(Nc3ncnc4[nH]ccc34)cc2)c1` [Compound 11, N-[4-(3-methylphenoxy)phenyl]-7H-pyrrolo[2,3-d]pyrimidin-4-amine], for which, in data set [1], the “Prediction of crossing the BBB” value is “CNS+” and the Papp at 2.5 h turned out to be 14 ± 0.4 ×10⁻⁶ cm/s.
Regarding `Clc1cccc(Oc2ccc(Nc3ncnc4[nH]ccc34)cc2)c1` [Compound 12, N-[4-(3-chlorophenoxy)phenyl]-7H-pyrrolo[2,3-d]pyrimidin-4-amine], in data set [1], the “Prediction of crossing the BBB” value was “CNS+” and the Papp at 2.5 h turned out to be 8.4 ± 1.6 ×10⁻⁶ cm/s. In addition, the IC50 in data set [3] was more than 100 µM.
On to `FC(F)(F)c1cccc(Oc2ccc(Nc3ncnc4[nH]ccc34)cc2)c1` [Compound 13, N-[4-(3-trifluoromethylphenoxy)phenyl]-7H-pyrrolo[2,3-d]pyrimidin-4-amine], for which, in data set [1], the “Prediction of crossing the BBB” value was “CNS+” and the Papp at 2.5 h was determined as 6.8 ± 1.4 ×10⁻⁶ cm/s.
Regarding `Clc1ccccc1Oc1ccc(Nc2ncnc3[nH]ccc23)cc1` [Compound 14, N-[4-(2-chlorophenoxy)phenyl]-7H-pyrrolo[2,3-d]pyrimidin-4-amine], in data set [1], the “Prediction of crossing the BBB” value was “CNS+” and the Papp at 2.5 h stood at 9.7 ± 1 ×10⁻⁶ cm/s.
On to `Clc1ccc(Oc2ccc(Nc3ncnc4[nH]ccc34)cc2)c(Cl)c1` [Compound 16, N-[4-(2.4-chlorophenoxy)phenyl]-7H-pyrrolo[2,3-d]pyrimidin-4-amine], for which the IC50 in data set [2] turned out to be 2.3 ± 0.54 µM; in data set [3], 5.72 ± 2.65 µM. Further, the “Prediction of crossing the BBB” value in data set [1] is recorded as “CNS+”. Further, in data set [1], the Papp at 2.5 h is 17.3 ± 0.1 ×10⁻⁶ cm/s.
Consider `COc1cccc(Oc2ccc(Nc3ncnc4[nH]ccc34)cc2)c1` [Compound 17, N-[4-(3-methoxyphenoxy)phenyl]-7H-pyrrolo[2,3-d]pyrimidin-4-amine], for which, in data set [1], the “Prediction of crossing the BBB” value is reported as “CNS+” and the Papp at 2.5 h came out at 10.5 ± 0.7 ×10⁻⁶ cm/s.
Consider `Nc1nc(Nc2ccc(Oc3ccc(C(F)(F)F)cc3)cc2)c2cc[nH]c2n1` [Compound 18, N4-(4-(4-(trifluoromethyl)phenoxy)phenyl]-7H-pyrrolo[2,3-d]pyrimidine-2,4-diamine], for which, in data set [2], the IC50 was 0.58 ± 0.08 µM. Further, in data set [1], the “Prediction of crossing the BBB” value was “CNS+” and the Papp at 2.5 h was 7.5 ± 0.1 ×10⁻⁶ cm/s. The IC50 in data set [3] was determined as 4.49 ± 1.16 µM.
For `Nc1nc(Nc2ccc(Oc3cccc(C(F)(F)F)c3)cc2)c2cc[nH]c2n1` [Compound 19, N4-(4-(3-(trifluoromethyl)phenoxy)phenyl]-7H-pyrrolo[2,3-d]pyrimidine-2,4-diamine] the same measures were 1.32 ± 0.04 µM, “CNS+”, 7.7 ± 0.6 ×10⁻⁶ cm/s and 3.9 ± 0.48 µM.
In the case of `Nc1nc(Nc2ccc(Oc3ccc(Cl)cc3)cc2)c2cc[nH]c2n1` [Compound 20, N4-(4-(4-chlorophenoxy)phenyl]-7H-pyrrolo[2,3-d]pyrimidine-2,4-diamine], in data set [1], the “Prediction of crossing the BBB” value was “CNS+” and the Papp at 2.5 h was 9.7 ± 1 ×10⁻⁶ cm/s.
Take `Nc1nc(Nc2ccc(Oc3cccc(Cl)c3)cc2)c2cc[nH]c2n1` [Compound 21, N4-(4-(3-chlorophenoxy)phenyl)-7H-pyrrolo[2,3-d]pyrimidine-2,4-diamine]: the IC50 in data set [2] amounted to 0.37 ± 0.12 µM; in data set [3], 3.05 ± 0.07 µM. The “Prediction of crossing the BBB” value in data set [1] is “CNS+”. The molecule also had an apparent permeability coefficient (Papp) at 2.5 h in data set [1] of 14.1 ± 0.4 ×10⁻⁶ cm/s.
With `Nc1ccc(Sc2ccc(Nc3ncnc4[nH]ccc34)cc2)cc1` [Compound 23, N-[4-((4-aminophenyl)thio)phenyl]-7H-pyrrolo[2,3-d]pyrimidin-4-amine], in data set [1], the “Prediction of crossing the BBB” value was “CNS+” and the Papp at 2.5 h is 4.7 ± 0.5 ×10⁻⁶ cm/s.
Turning to `c1ccc(COc2ccc(Nc3ncnc4[nH]ccc34)cc2)cc1` [Compound 24, N-[4-(benzyloxy)phenyl]-7H-pyrrolo[2,3-d]pyrimidin-4-amine], in data set [1], the “Prediction of crossing the BBB” value was “CNS+” and the Papp at 2.5 h is 18.3 ± 1.2 ×10⁻⁶ cm/s.
`O=C(c1ccccc1)c1ccc(Nc2ncnc3[nH]ccc23)cc1` [Compound 25, (4-((7H-pyrrolo[2,3-d]pyrimidin-4-yl)amino)phenyl](phenyl)methanone]: in data set [1], the “Prediction of crossing the BBB” value is “CNS+” and the Papp at 2.5 h was 6.9 ± 0.6 ×10⁻⁶ cm/s.
With `O=C(c1ccc(F)cc1)c1ccc(Nc2ncnc3[nH]ccc23)cc1` [Compound 26, (4-((7H-pyrrolo[2,3-d]pyrimidin-4-yl)amino)phenyl](4-fluorophenyl)methanone], in data set [1], the “Prediction of crossing the BBB” value is listed as “CNS+” and the Papp at 2.5 h came out at 9.4 ± 0.4 ×10⁻⁶ cm/s.
